Laboratory results reported in ChEMBL document CHEMBL2074350, “Immunosuppressants FK506 and rapamycin function as reversal agents of the multidrug resistance phenotype” (Blood, 1992).

Biological target: ATP-dependent translocase ABCB1 (Homo sapiens, UniProt P08183)
Assay: TP_TRANSPORTER: increase in Daunomycin intracellular accumulation (Daunomycin: 10 uM, Rapamycin: 5 uM) in CEM/VBL 250 cells
Assay type: functional, cell-based
Conditions: cem/vbl 250, 5 µM

Sequence of ATP-dependent translocase ABCB1 (P08183 whole entry): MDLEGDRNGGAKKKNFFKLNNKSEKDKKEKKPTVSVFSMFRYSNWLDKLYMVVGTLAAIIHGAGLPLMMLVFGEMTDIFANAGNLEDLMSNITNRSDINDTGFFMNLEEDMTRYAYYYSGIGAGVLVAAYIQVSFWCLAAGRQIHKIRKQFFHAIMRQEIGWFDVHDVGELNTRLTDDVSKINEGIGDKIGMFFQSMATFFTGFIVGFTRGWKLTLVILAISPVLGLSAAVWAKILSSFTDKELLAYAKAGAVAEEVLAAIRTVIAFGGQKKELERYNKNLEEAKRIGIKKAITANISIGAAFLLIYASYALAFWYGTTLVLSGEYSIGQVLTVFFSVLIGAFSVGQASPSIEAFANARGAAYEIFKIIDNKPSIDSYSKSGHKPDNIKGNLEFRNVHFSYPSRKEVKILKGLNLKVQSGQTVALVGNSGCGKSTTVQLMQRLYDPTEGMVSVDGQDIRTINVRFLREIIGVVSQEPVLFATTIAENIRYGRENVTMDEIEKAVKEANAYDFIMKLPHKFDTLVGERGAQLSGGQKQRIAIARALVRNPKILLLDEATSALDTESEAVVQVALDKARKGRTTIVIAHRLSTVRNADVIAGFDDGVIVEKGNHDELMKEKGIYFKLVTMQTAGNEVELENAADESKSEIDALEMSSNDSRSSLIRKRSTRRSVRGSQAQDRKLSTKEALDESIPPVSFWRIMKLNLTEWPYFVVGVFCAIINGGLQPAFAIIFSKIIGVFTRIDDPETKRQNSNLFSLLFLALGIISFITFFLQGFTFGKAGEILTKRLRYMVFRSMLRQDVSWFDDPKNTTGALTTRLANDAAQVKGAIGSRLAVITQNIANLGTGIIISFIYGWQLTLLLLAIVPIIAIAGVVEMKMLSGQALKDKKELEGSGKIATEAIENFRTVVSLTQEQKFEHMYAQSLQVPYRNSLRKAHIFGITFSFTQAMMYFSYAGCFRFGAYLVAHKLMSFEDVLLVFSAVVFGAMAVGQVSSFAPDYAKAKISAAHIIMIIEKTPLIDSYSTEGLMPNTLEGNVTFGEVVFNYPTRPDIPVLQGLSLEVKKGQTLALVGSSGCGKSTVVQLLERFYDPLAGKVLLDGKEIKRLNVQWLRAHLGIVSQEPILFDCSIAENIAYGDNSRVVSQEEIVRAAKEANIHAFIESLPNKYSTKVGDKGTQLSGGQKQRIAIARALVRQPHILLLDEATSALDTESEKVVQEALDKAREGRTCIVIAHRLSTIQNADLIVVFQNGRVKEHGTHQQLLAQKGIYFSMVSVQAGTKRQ

Activity: inhibitor [(at a rough estimate) 7-fold]
Compound: CO[C@H]1C[C@@H]2CC[C@@H](C)[C@@](O)(O2)C(=O)C(=O)N2CCCC[C@H]2C(=O)O[C@H]([C@H](C)C[C@@H]2CC[C@@H](O)[C@H](OC)C2)CC(=O)[C@H](C)/C=C(\C)[C@@H](O)[C@@H](OC)C(=O)[C@H](C)C[C@H](C)/C=C/C=C/C=C/1C [SIROLIMUS]
